Marks after values point to notes of the source that are not given here.
Columns and labels:
Format in all cases: in vivo
Kunming mice [1] = test: Influence on autonomic activity of normal mice (ZIL-2 mice autonomic activity meter, counts within 10 min); settings: intragastric, x ± s, n = 10; for Times of activities in 1 h after drug administration/10 min: 1 h after administration; for Times of activities in 2 h after drug administration/10 min: 2 h after administration; for Times of activities in 24 h after drug administration/10 min: 24 h after administration
How it was run: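 Activity counts during a 10-min window were taken at 1, 2 and 24 h after dosing in groups of 10 mixed-sex Kunming mice. Compounds were given in 0.5% CMC-Na at 25, 50 or 100 mg/kg. Statistics used Levene's homogeneity test, ANOVA and Dunnett's multiple comparisons.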

Kunming mice [2] = test: Influence on hypnosis effect with pentobarbital sodium doses below the threshold (25 mg/kg i.p.); settings: pentobarbital sodium 25 mg/kg i.p. 60 min later, sleep observed in 30 min, n = 10
How it was run: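 Percentage of mice sleeping within 30 min after subthreshold pentobarbital sodium (25 mg/kg i.p.), defined by loss of righting reflex over 1 min, analysed by χ2. Compound in 0.5% CMC-Na given intragastrically at 25/50/100 mg/kg 60 min before; groups of 10 Kunming mice, both sexes.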

Kunming mice [3] = test: Influence on hypnosis effect with pentobarbital sodium doses at the threshold (50 mg/kg i.p.); settings: pentobarbital sodium 50 mg/kg i.p. 60 min later, x ± s, n = 10
How it was run: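 Pentobarbital sodium (0.3%, 50 mg/kg i.p.) injected 60 min after a single intragastric dose (25, 50, 100 mg/kg, 0.5% CMC-Na vehicle) in Kunming mice, 10 per group, sexes balanced. Onset and length of sleep (righting reflex lost over 1 min) analysed by ANOVA; sleeping incidence by χ2 test.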

[4] = test drug 25 mg/kg intragastric single dose
[5] = test drug 50 mg/kg intragastric single dose
[6] = test drug 100 mg/kg intragastric single dose
[7] = 25 mg/kg intragastric single dose
[8] = 50 mg/kg intragastric single dose
[9] = 100 mg/kg intragastric single dose

SMILES	Times of activities in 1 h after drug administration/10 min (Kunming mice [1]; 25 mg/kg)	Times of activities in 2 h after drug administration/10 min (Kunming mice [1]; 25 mg/kg)	Times of activities in 24 h after drug administration/10 min (Kunming mice [1]; 25 mg/kg)	Times of activities in 1 h after drug administration/10 min (Kunming mice [1]; 50 mg/kg)	Times of activities in 2 h after drug administration/10 min (Kunming mice [1]; 50 mg/kg)	Times of activities in 24 h after drug administration/10 min (Kunming mice [1]; 50 mg/kg)	Times of activities in 1 h after drug administration/10 min (Kunming mice [1]; 100 mg/kg)	Times of activities in 2 h after drug administration/10 min (Kunming mice [1]; 100 mg/kg)	Times of activities in 24 h after drug administration/10 min (Kunming mice [1]; 100 mg/kg)	Number of sleeping animals (Kunming mice [2]; [4])	rate of sleeping (%) (Kunming mice [2]; [4])	Number of sleeping animals (Kunming mice [2]; [5])	rate of sleeping (%) (Kunming mice [2]; [5])	Number of sleeping animals (Kunming mice [2]; [6])	rate of sleeping (%) (Kunming mice [2]; [6])	duration of sleep (Kunming mice [3]; [7])	time to sleep (Kunming mice [3]; [7])	duration of sleep (Kunming mice [3]; [8])	time to sleep (Kunming mice [3]; [8])	duration of sleep (Kunming mice [3]; [9])	other results
CCCc1cc(-c2cc(=O)c3c(I)cc(CCS(=O)(=O)O)cc3o2)cc(C(N)=O)c1C(=O)O [Example 23]	287.2 ± 45.4 /10 min	263.2 ± 45.2 /10 min	307.2 ± 82.1 /10 min	229.9 ± 40.6 /10 min	244.7 ± 47.6 /10 min	300.7 ± 71.4 /10 min	135.5 ± 35.7 /10 min	181.0 ± 38.2 /10 min	292.8 ± 90.5 /10 min	3	30%	4	40* %	7	70** %	22.77 ± 25.89 min	5.35 ± 2.33 min	28.59 ± 26.98 min	5.17 ± 2.26 min	64.89 ± 45.78 min	time to sleep (Kunming mice [3]; [9]): 3.14 ± 1.21 min
COc1ccc(C2CC(=O)c3c(cc(OC)c(OC)c3OC)O2)cc1 (stereo not drawn) [Example 65, 5,6,7,4′-tetra methoxyl-flavanone]	280.5 ± 47.4 /10 min	279.4 ± 43.5 /10 min	291.2 ± 83.6 /10 min	174.3 ± 49.2 /10 min	185.5 ± 56.6 /10 min	289.0 ± 89.4 /10 min	127.5 ± 36.5 /10 min	132.6 ± 44.6 /10 min	280.7 ± 92.3 /10 min	4	40* %	6	60** %	7	70** %	31.48 ± 22.67 min	5.65 ± 1.83 min	39.63 ± 20.19 min	3.93 ± 1.39 min	57.62 ± 24.57 min	time to sleep (Kunming mice [3]; [9]): 3.92 ± 1.40 min
COc1c(O)cc(C2CC(=O)c3c(O)cc(O)cc3O2)cc1C(=O)O (stereo not drawn) [Example 50]	319.2 ± 55.4 /10 min	290.6 ± 41.2 /10 min	303.2 ± 78.6 /10 min	297.5 ± 42.5 /10 min	253.5 ± 40.4 /10 min	304.7 ± 92.8 /10 min	279.4 ± 48.3 /10 min	224.7 ± 46.3 /10 min	312.4 ± 79.1 /10 min	2	20%	4	40* %	7	70** %	22.71 ± 26.17 min	5.41 ± 2.17 min	28.68 ± 27.56 min	5.07 ± 2.34 min	65.35 ± 46.27 min	time to sleep (Kunming mice [3]; [9]): 3.25 ± 1.16 min
